Laboratory results: patent US20070072829A1, “Fungicidal composition comprising a pyridylmethylbenzamide derivative and a sulfamide derivative” (priority 2003, published 2007)

Test system: Plasmopara viticola
Experiment: 72 h preventive treatment of vine plants against vine downy mildew, Abbott efficacy, Tammes and Colby analysis
Assay type: in vivo
[1] = Compound Ia share of the mixture, or Compound Ia alone
[2] = tolylfluanid share of the mixture, or tolylfluanid alone

SMILES | ED70: Practical doses for 70% efficacy, dose of Compound Ia [1] [µg/mL] | ED90: Practical doses for 90% efficacy, dose of Compound Ia [1] [µg/mL] | ED70: Practical doses for 70% efficacy, dose of tolylfluanid [2] [µg/mL] | ED90: Practical doses for 90% efficacy, dose of tolylfluanid [2] [µg/mL]
O=C(NCc1ncc(C(F)(F)F)cc1Cl)c1c(Cl)cccc1Cl [Compound Ia, 2,6-dichloro-N-{[3-chloro-5-(trifluoromethyl)-2-pyridinyl]methyl}benzamide] | 27 | 65 | – | –
Cc1ccc(N(SC(F)(Cl)Cl)S(=O)(=O)N(C)C)cc1 [Tolylfluanid, N-dichlorofluoromethylthio-N′,N′-dimethyl-N-p-tolylsulfamide] | – | – | 231.4 | 533.6
